Read-outs that look alike come from different tables or passages of the source.

One experiment deals with TDP1 (Homo sapiens (Human), UniProt Q9NUW8). As to the kind of experiment: TDP1 gel-based in vitro fluorescence assay. In kind it is biochemical. Particulars: for IC50: read-out: TDP1 IC50. As for the experimental part:
(§1) (TDP assay buffer: 50 mM Tris HCl, pH 7.5, 80 mM KCl, 2 mM EDTA, 1 mM DTT, 40 μg/ml BSA and 0.01% Tween-20. TDP1 (20 mg/mL in 25 mM Tris-HCl pH 7.2, 150 mM NaCl, 2 mM tris(2-carboxyethyl)phosphine) with 2 mL of well solution composed of 0.1 M MOPS/HEPES pH 7.5, 10% (w/v) PEG 8000, 20% (v/v) ethylene glycol, 0.03 M sodium fluoride, 0.03 M sodium bromide, 0.03 M sodium iodide, 0.03 M sodium bromide and sealed over […] well solution. AF647 labelling buffer: Tris-HCl (pH 7.2, 25 mM), NaCl (150 mM), and tris(2-carboxyethyl)phosphine hydrochloride (TCEP, 2 mM).)
(§2) (DNA only: Buffer+DMSO. DMSO only: Enzyme+DMSO. Drug: Enzyme+Drug, 25° C., 10 min+DNA, reaction at 25° C., 15 min.)
Gel images were scanned using a Typhoon FLA 9500 scanner (GE Healthcare) and densitometric analyses were performed using the ImageQuant software (GE Healthcare). The IC50 of TDP1 inhibitors was calculated by comparing the percentage of cleavage product (5′Cy5-[…]-p-3′) to DMSO control.

The next experiment addresses TDP2 (Homo sapiens (Human), UniProt O95551). As to the kind of experiment: gel-based TDP2 fluorescence assay in vitro. In kind it is biochemical. Particulars: read-out: TDP2 IC50. As for the experimental part:
as §1, §2

The mark [1] stands for this setting: Table 8, lead compounds with different linkers.

TDP2, sequence (O95551 whole entry, species assumed): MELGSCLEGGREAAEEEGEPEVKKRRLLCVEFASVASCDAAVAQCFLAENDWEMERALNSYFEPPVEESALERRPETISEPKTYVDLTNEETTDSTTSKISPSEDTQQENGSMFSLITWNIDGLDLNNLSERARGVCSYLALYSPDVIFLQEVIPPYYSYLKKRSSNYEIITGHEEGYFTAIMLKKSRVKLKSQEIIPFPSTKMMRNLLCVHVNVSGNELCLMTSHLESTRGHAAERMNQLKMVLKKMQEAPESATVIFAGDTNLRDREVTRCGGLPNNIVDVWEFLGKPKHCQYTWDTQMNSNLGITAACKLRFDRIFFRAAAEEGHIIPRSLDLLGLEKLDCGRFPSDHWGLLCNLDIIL
TDP1, sequence (Q9NUW8 whole entry): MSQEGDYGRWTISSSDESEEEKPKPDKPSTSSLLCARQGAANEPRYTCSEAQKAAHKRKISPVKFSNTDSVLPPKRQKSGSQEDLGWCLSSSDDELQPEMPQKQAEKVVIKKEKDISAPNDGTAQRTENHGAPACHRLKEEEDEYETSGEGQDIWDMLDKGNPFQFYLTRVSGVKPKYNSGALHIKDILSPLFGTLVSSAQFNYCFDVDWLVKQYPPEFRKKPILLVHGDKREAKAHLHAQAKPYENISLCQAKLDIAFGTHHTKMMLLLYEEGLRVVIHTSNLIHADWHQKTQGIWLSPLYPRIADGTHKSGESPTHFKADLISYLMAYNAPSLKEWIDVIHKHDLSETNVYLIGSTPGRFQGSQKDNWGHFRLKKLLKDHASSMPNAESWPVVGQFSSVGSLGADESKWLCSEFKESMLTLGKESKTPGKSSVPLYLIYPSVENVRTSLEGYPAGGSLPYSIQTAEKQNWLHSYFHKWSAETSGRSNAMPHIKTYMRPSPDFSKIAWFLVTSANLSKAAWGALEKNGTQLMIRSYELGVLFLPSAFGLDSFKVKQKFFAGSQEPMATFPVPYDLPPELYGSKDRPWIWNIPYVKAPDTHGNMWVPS

Turning to `O=C1CCC(N2C(=O)c3cccc(NCCCCCCNCc4ccc(-c5nc6cc(-c7ccccc7)ccn6c5Nc5ccc(C(=O)O)cc5)cc4)c3C2=O)C(=O)N1` (stereo not drawn) [XZ742, 4-((2-(4-(((6-((2-(2,6-Dioxopiperidin-3-yl)-1,3-dioxoisoindolin-4-yl)amino)hexyl)amino)methyl)phenyl)-7-phenylimidazo[1,2-a]pyridin-3-yl)amino)benzoic acid], the IC50 (usually the concentration that inhibits the measured activity by half) was over 100 µM on TDP1 (Table 10, PROTACs) and over 100 µM at TDP2 (Table 10, PROTACs).
For `O=C(COc1cccc2c1C(=O)N(C1CCC(=O)NC1=O)C2=O)NCCCCn1cc(COc2ccc(-c3nc4cc(-c5ccccc5)ccn4c3Nc3ccc(C(=O)O)cc3)cc2)nn1` (stereo not drawn) [XZ686, 4-((2-(4-((1-(4-(2-((2-(2,6-Dioxopiperidin-3-yl)-1,3-dioxoisoindolin-4-yl)oxy)acetamido)butyl)-1H-1,2,3-triazol-4-yl)methoxy)phenyl)-7-phenylimidazo[1,2-a]pyridin-3-yl)amino)benzoic acid], the IC50 at TDP1 (Table 10, PROTACs) was over 100 µM; on TDP2 (Table 10, PROTACs), over 100 µM.
As for `Cc1ncsc1-c1ccc(CNC(=O)[C@@H]2C[C@@H](O)CN2C(=O)[C@@H](NC(=O)COCCOCCOCCn2cc(COc3ccc(-c4nc5cc(-c6ccccc6)ccn5c4Nc4ccc(C(=O)O)cc4)cc3)nn2)C(C)(C)C)cc1` [XZ680, 4-((2-(4-((1-((S)-13-((2S,4R)-4-hydroxy-2-((4-(4-methylthiazol-5-yl)benzyl)carbamoyl)pyrrolidine-1-carbonyl)-14,14-dimethyl-11-oxo-3,6,9-trioxa-12-azapentadecyl)-1H-1,2,3-triazol-4-yl)methoxy)phenyl)-7-phenylimidazo[1,2-a]pyridin-3-yl)amino)benzoic acid], the IC50 was over 100 µM on TDP1 (Table 10, PROTACs) and over 100 µM at TDP2 (Table 10, PROTACs).
`Cc1ncsc1-c1ccc(CNC(=O)[C@@H]2C[C@@H](O)CN2C(=O)[C@@H](NC(=O)COCCOCCOCCOCCn2cc(-c3ccn4c(Nc5ccc(C(=O)O)cc5)c(-c5ccccc5)nc4c3)nn2)C(C)(C)C)cc1` [XZ684, 4-((7-(1-((S)-16-((2S,4R)-4-Hydroxy-2-((4-(4-methylthiazol-5-yl)benzyl)carbamoyl)pyrrolidine-1-carbonyl)-17,17-dimethyl-14-oxo-3,6,9,12-tetraoxa-15-azaoctadecyl)-1H-1,2,3-triazol-4-yl)-2-phenylimidazo[1,2-a]pyridin-3-yl)amino)benzoic acid]: the IC50 at TDP1 (Table 10, PROTACs) is over 100 µM; on TDP2 (Table 10, PROTACs), over 100 µM.
As to `N#Cc1ccc(-c2ccc(Cn3cc(COc4ccc(-c5nc6ccccn6c5Nc5ccc(C(=O)O)cc5)cc4)nn3)cc2)nc1` [XZ721, 4-((2-(4-((1-(4-(5-Cyanopyridin-2-yl)benzyl)-1H-1,2,3-triazol-4-yl)methoxy)phenyl)imidazo[1,2-a]pyridin-3-yl)amino)benzoic acid], the values for the IC50 on TDP1 (setting [1]) and at TDP2 (setting [1]) were 60 ± 17 µM and over 100 µM, respectively. Besides, at TDP1 (Table 8, ratio of IC50 TDP2 to TDP1), the “FC (fold change)” value is given as over 1.
Regarding `O=C(O)c1ccc(Nc2c(-c3ccc(CO/N=C/c4ccc(-c5ccccc5)cc4)cc3)nc3cc(-c4ccccc4)ccn23)cc1` [XZ705, (E)-4-((2-(4-(((([1,1′-Biphenyl]-4-ylmethylene)amino)oxy)methyl)phenyl)-7-phenylimidazo[1,2-a]pyridin-3-yl)amino)benzoic acid], the “FC (fold change)” value at TDP1 (Table 7, ratio of IC50 TDP2 to TDP1) is over 2. The IC50 on TDP2 (Table 7, HPLC-purified oxime leads) was over 100 µM.
For the molecule `O=C(COc1cccc2c1C(=O)N(C1CCC(=O)NC1=O)C2=O)NCCCCn1cc(COc2ccc(-c3nc4ccccn4c3Nc3ccc(C(=O)O)cc3)cc2)nn1` (stereo not drawn) [XZ688, 4-((2-(4-((1-(4-(2-((2-(2,6-Dioxopiperidin-3-yl)-1,3-dioxoisoindolin-4-yl)oxy)acetamido)butyl)-1H-1,2,3-triazol-4-yl)methoxy)phenyl)imidazo[1,2-a]pyridin-3-yl)amino)benzoic acid], the IC50 at TDP1 (Table 10, PROTACs) was over 100 µM; on TDP2 (Table 10, PROTACs) it was over 100 µM.

The values are drawn from patent publication US20250011330A1, “Imidazo[1,2- a]pyrazine and Imidazo[1,2- a]pyridine Based Tyrosyl-DNA Phosphodiesterase I (TDP1) Inhibitors” (The USA, As Represented by the Secretary, Department of …, priority 2021, published 2025).
